Source: patent publication US20150018417A1, “FATTY ACIDS AS ANTI-INFLAMMATORY AGENTS” (University of Pittsburgh - Of the Commonwealth System of …, priority 2012, published 2015)
“Also recorded” adds a separate entry of the source. One block for each compound: values may come before it.

Assays:
RAW264.7 cells [1] = test: EFAD formation in activated RAW264.7 cells treated with inhibitors; format: cell-based, murine
PPARγ = target: T1, PPARγ (Homo sapiens, UniProt P37231); test: PPARγ beta-lactamase reporter assay; format: cell-based; conditions: concentrations 0.5-10,000 nM, read-out: EC50 PPARγ activation
T1 sequence (P37231 1-505): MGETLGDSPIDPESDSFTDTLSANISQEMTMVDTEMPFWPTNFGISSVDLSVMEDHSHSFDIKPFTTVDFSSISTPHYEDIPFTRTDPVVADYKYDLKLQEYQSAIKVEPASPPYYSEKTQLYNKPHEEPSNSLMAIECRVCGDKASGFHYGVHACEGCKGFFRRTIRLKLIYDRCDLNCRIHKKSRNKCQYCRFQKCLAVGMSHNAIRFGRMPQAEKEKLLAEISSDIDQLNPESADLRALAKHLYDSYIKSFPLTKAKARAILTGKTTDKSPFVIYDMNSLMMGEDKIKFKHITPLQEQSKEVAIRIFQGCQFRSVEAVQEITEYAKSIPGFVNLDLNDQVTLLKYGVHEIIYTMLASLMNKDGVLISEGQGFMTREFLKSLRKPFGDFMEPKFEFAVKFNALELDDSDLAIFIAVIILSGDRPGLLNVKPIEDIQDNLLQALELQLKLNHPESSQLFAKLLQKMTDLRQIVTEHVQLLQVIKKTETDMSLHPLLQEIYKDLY
Method: (§1) FIG. 11 illustrates modulation of anti-oxidant and inflammatory responses by 17-oxoDHA and 17-oxoDPA. RAW264.7 cells were treated with increasing concentration of 17-oxoDHA and 17-oxoDPA. (a) Cells were harvested 1 h after treatment and Nrf2 levels were quantified in nuclear extracts, (b) Cells were harvested 18 h after treatment and HO—I and Nqol (upper band) levels were measured by western blot, (c, d) RAW264.7 cells were treated with increasing concentration of 17-oxoDHA and 17-oxoDP A for 6 h and Kdo2+IFNγ were added. Samples were collected at 12 h. IL-6, MCP-I and IL-IO levels were measured in the cell media by Quantikine ELISA Kit (R&D Systems) and normalized by the total protein content (c); Nitrite levels were measured in the cell media and normalized by the total protein content and iNOS and Cox-2 levels were measured in total cell lysates (d); (e) PPARγ beta-lactamase reporter assays were performed for Rosiglitazone, 17-OxoDPA, 17-OxoDHA, 15d-PGJ2, 17-hydroxyDHA, DPA, and DHA with concentrations ranging from 0.5-10,000 nM.
The observation that oxo-fatty acids, such as 15d-PGJ230, 5-oxoEPA, 6-oxoOTE, and the synthetic 4-oxoDHA31, covalently bind and activate the peroxisome proliferator-activated receptor γ (PPARγ), prompted the present inventors to test the ability of 17-oxoDPA, and 17-oxoDHA to activate PPARγ. Thus PPARγ beta-lactamase reporter assays were performed using Roziglitazone, a potent synthetic PPARγ agonist, was used in the assay as positive control.

RAW264.7 cells [2] = test: Cytokine levels (IL-6, MCP-I, IL-10) in activated RAW264.7 cells, ELISA; format: cell-based, murine
Method: as §1
To investigate whether the 17-oxo DHA and 17-oxo DPA played a role in modulating the inflammatory response generated by Kdo2 and IFNγ, the present investigators study the change in levels of cytokines, IL-6, MCP-I and IL-IO in cells exposed to increasing doses of 17-oxo DHA and 17-oxo DPA. […]

GAPDH = GAPDH (Oryctolagus cuniculus, UniProt P46406); test: In vitro alkylation of GAPDH, mass spectrometric analysis; format: biochemical, rabbit
GAPDH, sequence (P46406 whole entry): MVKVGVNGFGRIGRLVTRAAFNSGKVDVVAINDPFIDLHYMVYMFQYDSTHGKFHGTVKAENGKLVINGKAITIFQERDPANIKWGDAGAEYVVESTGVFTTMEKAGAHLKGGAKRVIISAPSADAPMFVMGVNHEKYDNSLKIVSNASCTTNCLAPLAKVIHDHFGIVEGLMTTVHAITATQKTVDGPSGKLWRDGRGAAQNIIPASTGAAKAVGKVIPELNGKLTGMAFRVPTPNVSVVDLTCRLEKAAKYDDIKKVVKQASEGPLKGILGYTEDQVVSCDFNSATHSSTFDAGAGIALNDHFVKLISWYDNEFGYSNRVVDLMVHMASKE
Excerpt: FIG. 21 illustrates the mass spectrometric analysis of an in vitro reaction of GAPDHvith EFAD-2. Four residues were detected and confirmed-as being targets for EfAD-2 in treated rabbit GAPDH. The peptides were alkylated as Cys244 (a), His163 (b), Cys149 (c) and His328 (d). Upper panels show EFAD-2 modified peptides and lower panels show spectra from corresponding native peptide.
To more specifically test the binding of EFADs to nucleophilic residues in proteins, we tested whether GAPDH was alkylated by EFADs. This enzyme is a well-characterized target for electrophiles and becomes easily inactivated by nitrosylation, oxidation or nucleophilic addition.

Nrf2 = Nrf2 nuclear accumulation and HO-1/Nqo1 expression, western blot; format: cell-based, murine; conditions: RAW264.7; Nrf2 at 1 h, HO-1/Nqo1 at 18 h
Method: as §1
As described above, compounds of the invention can react with biological thiols to form reversible covalent adducts. […]
(§2) Protein concentrations of samples were measured by BCA assay (Pierce). […] Actin (detected by Sigma A2066) was used as loading control. […]

[3] = system: inducible nitric oxide synthase (iNOS); test: iNOS induction and nitrite accumulation in activated RAW264.7 cells; format: cell-based, murine; conditions: RAW264.7 activated with Kdo2 and IFNγ
Method: as §1
For activation experiments RAW 264.7 cells were seeded, incubated overnight, and treated at approximately 80% confluence with the indicated compounds 47. Non-activated controls were treated with vehicle alone. During activation, cells were maintained in an activation medium (SMEM) of Minimum Essential Medium Eagle (Cellgro, 17-305)+2% FBS supplemented with L-glutamine (584 mg/L), Na-pyruvate (110 mg/L) and Hepes (3.57 g/L, pH 7.4). For inhibition studies, inhibitors were added to the medium at the time of activation and MTT assays were used to confirm cell viability. Cells were harvested 20 h post activation (unless otherwise indicated) in 50 mM phosphate buffer (pH 7.4) and snap frozen in liquid N2. […]
as §2
(§3) Total nitrite and nitrate concentration was measured in cell culture media by Griess reaction using the Nitrate/Nitrite Colorimetric Assay Kit (Cayman Chemical).

RAW264.7 cells [4] = test: Nitrite levels in cell media of activated RAW264.7 cells (Griess reaction); format: cell-based, murine; conditions: 6 h pretreatment, then Kdo2+IFNγ, 12 h
Method: as §1
For activation experiments RAW 264.7 cells were seeded, incubated overnight, and treated at approximately 80% confluence with the indicated compounds 47. […]
as §3

[5] = RAW264.7 activated with Kdo2 and IFNγ, inhibitor added at activation, 20 h

Structure (SMILES): CC(C)Cc1ccc(C(C)C(=O)O)cc1 (racemic) [ibuprofen]
inhibition of EFAD production (RAW264.7 cells [1]; [5]): more than 80%
effect on EFAD-I formation (RAW264.7 cells [1]; ibuprofen 100 μM, exception stated in the text): no significant effect

Structure (SMILES): CCCCCC=CC=C1C(=O)C=C[C@@H]1CC=CCCCC(=O)O [15d-PGJ2, 15-deoxy-Δ (12,14)-prostaglandin J2, reference compound]
EC50 (PPARγ): ~25 nM

EC50 (PPARγ): > 10000 nM
Structure (SMILES): CC/C=C\CC(O)/C=C/C=C\C/C=C\C/C=C\CCCCCC(=O)O (stereo not shown) [17-OH-DPA, 17-OH(7Z,10Z,13Z,15A,19Z)-docosa-7,10,13,15,19-pentanoic acid, reference compound]

EC50 (PPARγ): ~40 nM
adduct formation with GAPDH residues (GAPDH): covalently bind Cys and His residues
Structure (SMILES): CC/C=C\CC(=O)C=C/C=C\C/C=C\C/C=C\C/C=C\CCC(=O)O [17-oxoDHA, 17-oxo-(4Z,7Z,10Z,13Z,15A,19Z)-docosa-4,7,10,13,15,19-hexanoic acid]
IFNγ and LPS-induced cytokine production (RAW264.7 cells [2]): inhibited
Nrf2 nuclear accumulation and expression of HO-1 and Nqo1 (Nrf2): promoted dose-dependent Nrf2 nuclear accumulation; also recorded: induced the anti-oxidant response
iNOS induction and accumulation of nitrite in the cell media [3]: dose-dependent inhibition
reduction of nitrite production (RAW264.7 cells [4]; 20 μM): −70%

EC50 (PPARγ): ~40 nM
adduct formation with GAPDH residues (GAPDH): covalently bind Cys and His residues
Structure (SMILES): CC/C=C\CC(=O)C=C/C=C\C/C=C\C/C=C\CCCCCC(=O)O [17-oxoDPA, 17-oxo-(7Z,10Z,13Z,15A,19Z)-docosa-7,10,13,15,19-pentanoic acid]
IFNγ and LPS-induced cytokine production (RAW264.7 cells [2]): inhibited
Nrf2 nuclear accumulation and expression of HO-1 and Nqo1 (Nrf2): promoted dose-dependent Nrf2 nuclear accumulation; also recorded: induced the anti-oxidant response
iNOS induction and accumulation of nitrite in the cell media [3]: dose-dependent inhibition
reduction of nitrite production (RAW264.7 cells [4]; 25 μM): −70%

Structure (SMILES): CCCCCC#CCC#CCC#CCC#CCCCC(=O)O [ETYA, Eicosatetraynoic acid]
effect on EFAD formation (RAW264.7 cells [1]; [5]): strongly inhibit

Structure (SMILES): COc1ccc2c(c1)c(CC(=O)O)c(C)n2C(=O)c1ccc(Cl)cc1 [Indomethacin]
effect on EFAD formation (RAW264.7 cells [1]; [5]): completely abolish

Structure (SMILES): CC(C)c1ccc2c(c1)c(SC(C)(C)C)c(CC(C)(C)C(=O)O)n2Cc1ccc(Cl)cc1 [MK886]
effect on EFAD formation (RAW264.7 cells [1]; [5]): no significant effect

Structure (SMILES): CS(=O)(=O)Nc1ccc([N+](=O)[O-])cc1OC1CCCCC1 [NS-398]
effect on EFAD formation (RAW264.7 cells [1]; [5]): abolished

Structure (SMILES): C=C1[C@@H](O)[C@@H]2O[C@]3(CC[C@H](/C=C/[C@@H](C)[C@@H]4CC(C)=C[C@@]5(O[C@H](C[C@@](C)(O)C(=O)O)CC[C@H]5O)O4)O3)CC[C@H]2O[C@@H]1[C@@H](O)C[C@H](C)[C@H]1O[C@@]2(CCCCO2)CC[C@H]1C [OKA, okadaic acid]
effect on EFAD formation (RAW264.7 cells [1]; [5]): slight increase

Structure (SMILES): O=C(O)Cc1ccccc1Nc1c(Cl)cccc1Cl [diclofenac]
effect on EFAD formation (RAW264.7 cells [1]; [5]): completely abolish
